From paper PMC4704049, “Potential Dual Role of Eugenol in Inhibiting Advanced Glycation End Products in Diabetes: Proteomic and Mechanistic Insights” (Scientific Reports, 2016)

Molecular target: T1, bovine serum albumin (BSA) (Bos taurus, UniProt P02769)
T1 construct: gene ALB
Assay: intrinsic fluorescence quenching (eugenol […])
Format: binding

T1 sequence (P02769 25-607): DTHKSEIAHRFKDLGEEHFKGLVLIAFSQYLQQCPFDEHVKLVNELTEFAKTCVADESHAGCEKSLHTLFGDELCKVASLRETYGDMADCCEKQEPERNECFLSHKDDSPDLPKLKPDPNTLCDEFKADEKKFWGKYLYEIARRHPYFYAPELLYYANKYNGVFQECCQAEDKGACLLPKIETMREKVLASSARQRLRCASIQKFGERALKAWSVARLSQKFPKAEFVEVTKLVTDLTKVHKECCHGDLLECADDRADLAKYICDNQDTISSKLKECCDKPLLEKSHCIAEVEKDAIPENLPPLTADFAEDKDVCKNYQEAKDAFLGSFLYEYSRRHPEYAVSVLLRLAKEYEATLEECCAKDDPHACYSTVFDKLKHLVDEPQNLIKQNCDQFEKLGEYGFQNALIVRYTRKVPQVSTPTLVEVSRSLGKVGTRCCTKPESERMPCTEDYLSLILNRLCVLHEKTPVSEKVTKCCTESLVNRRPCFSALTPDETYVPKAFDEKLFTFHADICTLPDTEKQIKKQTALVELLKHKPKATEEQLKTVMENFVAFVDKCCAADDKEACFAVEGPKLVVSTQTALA

With `C=CCc1ccc(O)c(OC)c1` [EUG, eugenol] the “intrinsic fluorescence quenching (eugenol 1-50 mM)” value was “In the intrinsic fluorescence assay, it was evident that eugenol binds to BSA in a concentration dependent manner”.
